Reference: EP4227307A1 (Genzyme Corporation, priority 2022, dated 2023)
Structures can show the parent of a compound that is named as a salt.

Target: T1, human recombinant 6His-Nterm SHP2 full-length (Thr2-Arg593) (Homo sapiens, UniProt Q06124)
T1 construct: 6His-Nterm SHP2 full-length (Thr2-Arg593, R&D system); 6His (N); purchased R&D system
T1 sequence (Q06124 2-593): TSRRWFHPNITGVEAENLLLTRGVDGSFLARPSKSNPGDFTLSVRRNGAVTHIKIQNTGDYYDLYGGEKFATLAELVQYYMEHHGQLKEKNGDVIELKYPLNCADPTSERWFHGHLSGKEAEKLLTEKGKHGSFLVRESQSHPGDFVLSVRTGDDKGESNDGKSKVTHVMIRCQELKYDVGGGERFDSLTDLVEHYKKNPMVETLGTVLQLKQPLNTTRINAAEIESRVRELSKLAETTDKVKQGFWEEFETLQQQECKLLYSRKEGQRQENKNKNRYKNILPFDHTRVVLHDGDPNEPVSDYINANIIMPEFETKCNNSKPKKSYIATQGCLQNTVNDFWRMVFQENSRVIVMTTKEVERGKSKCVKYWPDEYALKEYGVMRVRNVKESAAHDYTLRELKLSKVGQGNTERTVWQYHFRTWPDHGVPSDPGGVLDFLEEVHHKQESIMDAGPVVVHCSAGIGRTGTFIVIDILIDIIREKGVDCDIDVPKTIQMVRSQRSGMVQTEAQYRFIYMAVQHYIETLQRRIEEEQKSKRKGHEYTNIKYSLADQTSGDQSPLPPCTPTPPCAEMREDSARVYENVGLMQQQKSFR
Test: SHP2 Phosphatase Assay (DiFMUP fluorescence)
Format: biochemical
Details: SHP2 0.2 nM pre-incubated with 100 nM bi-phosphorylated activating peptide; compound 1000-0.05 nM, 30 min pre-incubation; DiFMUP 20 µM, 45 min, room temperature; 10-concentration dose-response
How it was run: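 SHP2 (0.2 nM) preactivated ≥10 min with 100 nM bis-phosphorylated peptide, then 30 min with compound (10 concentrations, 1000–0.05 nM) at room temperature, pH 7.2 HEPES buffer with DTT. DiFMUP (20 µM, added solution) reacted 45 min, pervanadate-stopped; fluorescence 350/450 nm. IC50 by 4-parameter logistic fit.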

Compound | IC50 [nM]
Cc1nc(N2CCC3(CC2)Cc2c(F)cccc2[C@H]3N)c2ccnn2c1-c1cccc(F)c1F [Compound 94, (1S)-1'-[7-(2,3-difluorophenyl)-6-methyl-pyrazolo[1,5-a]pyrazin-4-yl]-4-fluoro-spiro[indane-2,4'-piperidine]-1-amine formate] | 146
Cc1nc(N2CCC3(CC2)Cc2c(F)cccc2[C@H]3N)c2ccnn2c1-c1cnn(C)c1C [Compound 95, (1S)-1'-[7-(1,5-dimethylpyrazol-4-yl)-6-methyl-pyrazolo[1,5-a]pyrazin-4-yl]-4-fluoro-spiro[indane-2,4'-piperidine]-1-amine formate] | 19
Cc1nc(N2CCC3(CC2)Cc2c(F)cccc2[C@H]3N)c2ccnn2c1-c1cnn2ccccc12 [Compound 96, (1S)-4-fluoro-1'-(6-methyl-7-pyrazolo[1,5-a]pyridin-3-yl-pyrazolo[1,5-a]pyrazin-4-yl)spiro[indane-2,4'-piperidine]-1-amine formate] | 11
Cc1nc(N2CCC3(CC2)Cc2c(F)cccc2[C@H]3N)c2ccnn2c1-c1cnc(C)n1C [Compound 97, (1S)-1'-[7-(2,3-dimethylimidazol-4-yl)-6-methyl-pyrazolo[1,5-a]pyrazin-4-yl]-4-fluoro-spiro[indane-2,4'-piperidine]-1-amine hydrochloride] | 42
Cc1cnccc1-c1c(C)nc(N2CCC3(CC2)Cc2ncccc2[C@H]3N)c2ccnn12 [Compound 98, (5S)-1'-[6-methyl-7-(3-methyl-4-pyridyl)pyrazolo[1,5-a]pyrazin-4-yl]spiro [5,7-dihydrocyclopenta[b]pyridine-6,4'-piperidine] -5-amine formate] | 145
Cc1nc(N2CCC3(CC2)Cc2ncccc2[C@H]3N)c2ccnn2c1-c1cccs1 [Compound 99, (5S)-1'-[6-methyl-7-(2-thienyl)pyrazolo[1,5-a]pyrazin-4-yl]spiro [5,7-dihydrocyclopenta[b]pyridine-6,4'-piperidine]-5-amine hydrochloride] | 9
Cc1nc(N2CCC3(CC2)Cc2ncccc2[C@H]3N)c2ccnn2c1-c1ccncc1Cl [Compound 100, (5S)-1'-[7-(3-chloro-4-pyridyl)-6-methyl-pyrazolo[1,5-a]pyrazin-4-yl]spiro[5,7-dihydrocyclopenta[b]pyridine-6,4'-piperidine]-5-amine hydrochloride] | 13
Cc1nc(N2CCC3(CC2)Cc2cc(F)ccc2[C@H]3N)c2ccnn2c1-c1cnn(C)c1C [Compound 101, (1S)-1'-[7-(1,5-dimethylpyrazol-4-yl)-6-methyl-pyrazolo[1,5-a]pyrazin-4-yl]-5-fluoro-spiro[indane-2,4'-piperidine]-1-amine hydrochloride] | 15
Cc1nc(N2CCC3(CC2)Cc2c(F)cc(F)cc2[C@H]3N)c2ccnn2c1-c1cnn(C)c1C [Compound 102, (1S)-1'-[7-(1,5-dimethylpyrazol-4-yl)-6-methyl-pyrazolo[1,5-a]pyrazin-4-yl]-4,6-difluoro-spiro[indane-2,4'-piperidine]-1-amine hydrochloride] | 17
Cc1nc(N2CCC3(CC2)Cc2ccc(F)cc2[C@H]3N)c2ccnn2c1-c1cnn(C)c1C [Compound 103, (1S)-1'-[7-(1,5-dimethylpyrazol-4-yl)-6-methyl-pyrazolo[1,5-a]pyrazin-4-yl]-6-fluoro-spiro [indane-2,4'-piperidine]-1-amine hydrochloride] | 12
Cc1nc2c(s1)CC1(CCN(c3nc(C)c(-c4ccccc4F)n4nccc34)CC1)[C@@H]2N [Compound 104, (4S)-1'-[7-(2-fluorophenyl)-6-methyl-pyrazolo[1,5-a]pyrazin-4-yl]-2-methyl-spiro[4,6-dihydrocyclopenta[d]thiazole-5,4'-piperidine]-4-amine hydrochloride] | 9
Cc1nc2c(s1)CC1(CCN(c3nc(C)c(-c4ccnc(C)c4Cl)n4nccc34)CC1)[C@@H]2N [Compound 105, (4S)-1'-[7-(3-chloro-2-methyl-4-pyridyl)-6-methyl-pyrazolo[1,5-a]pyrazin-4-yl]-2-methyl-spiro[4,6-dihydrocyclopenta[d]thiazole-5,4'-piperidine]-4-amine hydrochloride] | 6
Cc1ccc2c(n1)CC1(CCN(c3nc(C)c(-c4ccccc4F)n4nccc34)CC1)[C@@H]2N [Compound 106, (5S)-1'-[7-(2-fluorophenyl)-6-methyl-pyrazolo[1,5-a]pyrazin-4-yl]-2-methyl-spiro[5,7-dihydrocyclopenta[b]pyridine-6,4'-piperidine]-5-amine hydrochloride] | 14
Cc1ccc2c(n1)CC1(CCN(c3nc(C)c(-c4ccccc4)n4nccc34)CC1)[C@@H]2N [Compound 107, (5 S)-2-methyl-1'-(6-methyl-7-phenyl-pyrazolo[1,5-a]pyrazin-4-yl)spiro[5,7-dihydrocyclopenta[b]pyridine-6,4'-piperidine]-5-amine hydrochloride] | 12
COc1nccc(-c2c(C)nc(N3CCC4(CC3)Cc3ncccc3[C@H]4N)c3ccnn23)c1Cl [Compound 108, (5S)-1'-[7-(3-chloro-2-methoxy-4-pyridyl)-6-methyl-pyrazolo[1,5-a]pyrazin-4-yl]spiro[5,7-dihydrocyclopenta[b]pyridine-6,4'-piperidine]-5-amine] | 6
COc1cccc2c1CC1(CCN(c3nc(C)c(-c4ccccc4F)n4nccc34)CC1)[C@@H]2N [Compound 109, (1S)-1'-[7-(2-fluorophenyl)-6-methyl-pyrazolo[1,5-a]pyrazin-4-yl] -4-methoxy-spiro[indane-2,4'-piperidine]-1-amine] | 10
COc1cccc2c1CC1(CCN(c3nc(C)c(-c4ccnc(C)c4Cl)n4nccc34)CC1)[C@@H]2N [Compound 110, (1S)-1'-[7-(3-chloro-2-methyl-4-pyridyl)-6-methyl-pyrazolo[1,5-a]pyrazin-4-yl]-4-methoxy-spiro[indane-2,4'-piperidine]-1-amine] | 11
COc1cccc2c1CC1(CCN(c3nc(C)c(-c4cnn(C)c4C)n4nccc34)CC1)[C@@H]2N [Compound 111, (1S)-1-[7-(1,5-dimethylpyrazol-4-yl)-6-methyl-pyrazolo[1,5-a]pyrazin-4-yl] -4-methoxy-spiro[indane-2,4'-piperidine]-1-amine] | 16
Cc1cc2c(cn1)CC1(CCN(c3nc(C)c(-c4ccnc(C)c4Cl)n4nccc34)CC1)[C@@H]2N [Compound 112, (5S)-1'-[7-(3-chloro-2-methyl-4-pyridyl)-6-methyl-pyrazolo[1,5-a]pyrazin-4-yl]-3-methyl-spiro[5,7-dihydrocyclopenta[c]pyridine-6,4'-piperidine]-5-amine hydrochloride] | 5
Cc1cc2c(cn1)CC1(CCN(c3nc(C)c(-c4ccccc4)n4nccc34)CC1)[C@@H]2N [Compound 114, (5S)-3-methyl-1'-(6-methyl-7-phenyl-pyrazolo[1,5-a]pyrazin-4-yl)spiro[5,7-dihydrocyclopenta[c]pyridine-6,4'-piperidine]-5-amine hydrochloride] | 10
Cc1nc(N2CCC3(CC2)Cc2ncccc2[C@H]3N)c2ccnn2c1-c1c(F)cccc1F [Compound 115, (5S)-1'-[7-(2,6-difluorophenyl)-6-methyl-pyrazolo[1,5-a]pyrazin-4-yl]spiro[5,7-dihydrocyclopenta[b]pyridine-6,4'-piperidine]-5-amine] | 11
Cc1cc2c(cn1)CC1(CCN(c3nc(C)c(-c4ccnc(C)c4F)n4nccc34)CC1)[C@@H]2N [Compound 116, (5S)-1'-[7-(3-fluoro-2-methyl-4-pyridyl)-6-methyl-pyrazolo[1,5-a]pyrazin-4-yl]-3-methyl-spiro[5,7-dihydrocyclopenta[c]pyridine-6,4'-piperidine]-5-amine] | 8
Cc1cc2c(cn1)CC1(CCN(c3nc(C)c(-c4cccc(C#N)c4F)n4nccc34)CC1)[C@@H]2N [Compound 117, 3-[4-[(5S)-5-amino-3-methyl-spiro[5,7-dihydrocyclopenta[c]pyridine-6,4'-piperidine]-1'-yl]-6-methyl-pyrazolo[1,5-a]pyrazin-7-yl]-2-fluoro-benzonitrile hydrochloride] | 10
COc1ccc2c(c1)[C@@H](N)C1(CCN(c3nc(C)c(-c4ccnc(C)c4F)n4nccc34)CC1)C2 [Compound 118, (1S)-1'-[7-(3-fluoro-2-methyl-4-pyridyl)-6-methyl-pyrazolo[1,5-a]pyrazin-4-yl]-6-methoxy-spiro [indane-2,4'-piperidine]-1-amine hydrochloride] | 4
COc1ccc2c(c1)[C@@H](N)C1(CCN(c3nc(C)c(-c4ccncc4Cl)n4nccc34)CC1)C2 [Compound 119, hydrochloride] | 4
